Results on 10 molecules are retold here after ChEMBL document CHEMBL1201862, “PubChem BioAssay data set” (2004).

Holding throughout (test): NCI tumour cell line growth inhibition, 48 h
Assay [1] deals with CAKI-1.
Assay [2] relates to COLO 205.
Assay [3] relates to DMS-114.
For assay [4], the system named is DMS-273.
Assay [5] concerns HCC 2998.
Assay [6] has as its system MCF7.
The test system of assay [7] is NCI-H226.
For assay [8], the system named is NCI/ADR-RES.
For assay [9], the system named is OVCAR-5.
The subject of assay [10] is RPMI-8226.
In assay [11] the test system is RXF 393.
Assay [12] has as its system SF-539.
Assay [13] concerns SK-OV-3.
For assay [14], the system named is SN12C.
Assay [15] has as its system SNB-78.
Assay [16] deals with LXFL 529.
In assay [17] the test system is M14.

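All cell lines were grown in 96-well plates and treated with compound for 48 hours. Here, GI50 denotes the concentration required for 50% inhibition of growth.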 Active and inactive are the calls of the source. Cut-off read from the data, not from the text of the source: active = GI50 up to about 1.1 µM and inactive = higher. A value given as a limit tells only on which side of the number the result lay.

With `Nc1nc(Cl)nc2c1ncn2C1CC(O)C(CO)O1` (configuration not stated), the GI50 was 0.665 µM (active) in assay [1]; 33.4 µM (inactive) in [2]; 0.228 µM (active) in assay [3]; 3.89 µM (inactive) in [4]; 19.3 µM (inactive) in assay [5]; 9.75 µM (inactive) in [6]. In addition, the GI50 is 16.7 µM (inactive) in assay [7]; 0.103 µM (active) in assay [8]; 1.78 µM (inactive) in [9]; 54.2 µM (inactive) in assay [10]; 24.9 µM (inactive) in [11]; 20.3 µM (inactive) in assay [12]. Moreover, the figures for the GI50 in assay [13], in assay [14] and in assay [15] were 52.7 µM (inactive), 0.738 µM (active) and > 100 µM (inactive), respectively.
Regarding `COC(=O)C(Cc1ccc2c(c1)OCO2)(NC(=O)c1ccccc1)P(=O)(OC)OC` (configuration not stated), the GI50 in [1], in [2], in assay [3], in assay [4], in assay [5] and in [16] was > 100 µM (inactive) in each case. The GI50 in assay [17], in [7], in assay [9], in [10], in assay [11] and in [12] was > 100 µM (inactive) throughout. The GI50 in assay [13], in assay [14] and in assay [15] was > 100 µM (inactive) in each case.
In the case of `O=Cc1ccccc1CCn1c(=O)c2cc3c(=O)n(CCc4ccccc4C=O)c(=O)c3cc2c1=O`, the GI50 in assay [3], in assay [4], in assay [16], in [7], in [11] and in assay [12] was > 100 µM (inactive) each time. Besides, the GI50 in [13], in assay [14] and in [15] was > 100 µM (inactive) throughout.
For `C=C1C(=O)O[C@@H]2[C@H](O)[C@@H](C)[C@@H]3C=CC(=O)[C@@]3(C)[C@@H](OC(=O)/C(C)=C/C)[C@H]12`, the GI50 in [1] is 0.782 µM (active); in assay [2] it was 0.344 µM (active); in assay [3], 0.498 µM (active); in assay [4], 0.451 µM (active); in assay [5] it was 0.656 µM (active); in assay [6], 0.518 µM (active). Also, the GI50 was 1.12 µM (inactive) in [7]; 0.811 µM (active) in assay [8]; 3.81 µM (inactive) in assay [9]; 0.344 µM (active) in [10]; 0.63 µM (active) in assay [11]; 0.468 µM (active) in assay [12]. In addition, the GI50 in assay [13] is 2.39 µM (inactive); in [14], 0.465 µM (active); in [15] it was 0.871 µM (active).
As for `CC(C)(C)c1ccc2c(c1)OP1(Oc3c(Cl)cc(Cl)c4cccnc34)(O2)Oc2ccc(C(C)(C)C)cc2O1`, the GI50 in assay [1] is 3.78 µM (inactive); in assay [2], 13.4 µM (inactive); in [3], 2.62 µM (inactive); in [4] it was 5.04 µM (inactive); in assay [5] it was 11.3 µM (inactive); in assay [6] it was 4.58 µM (inactive). Besides, the GI50 in assay [7] was 8.97 µM (inactive); in [8] it was 8.11 µM (inactive); in assay [9] it was 13.7 µM (inactive); in [10], 3.59 µM (inactive); in [11] it was 13.3 µM (inactive); in assay [12] it was 7.78 µM (inactive). In addition, the GI50 in assay [13] was 11.9 µM (inactive); in assay [14], 11 µM (inactive); in [15] it was 23 µM (inactive).
Take `COc1cc2c(cc1O)N=C[C@@H]1CC[C@@H](O)N1C2=O.COc1cc2c(cc1O)N=C[C@@H]1CC[C@H](O)N1C2=O`: the GI50 is 0.607 µM (active) in assay [1]; 0.738 µM (active) in assay [2]; 0.522 µM (active) in assay [3]; 5.48 µM (inactive) in assay [4]; 0.863 µM (active) in assay [5]; 0.946 µM (active) in [6]. The GI50 in [7] is 0.525 µM (active); in assay [8] it was 0.855 µM (active); in [9], 2.99 µM (inactive); in assay [10], 0.527 µM (active); in [11], 0.281 µM (active); in assay [12], 0.726 µM (active). Moreover, the figures for the GI50 in [13], in assay [14] and in assay [15] were 4.41 µM (inactive), 1.04 µM (active) and 0.631 µM (active), respectively.
`O=S(=O)(N/N=C/c1ccc(Cl)cc1Cl)c1ccccc1`: the GI50 in assay [1] was 59.4 µM (inactive); in [2] it was 62.4 µM (inactive); in assay [3] it was 29.4 µM (inactive); in [4], 66.7 µM (inactive); in [5], > 100 µM (inactive); in assay [16], 74.3 µM (inactive). Moreover, the GI50 in [17] is 81.1 µM (inactive); in [7], 99.3 µM (inactive); in [9], > 100 µM (inactive); in assay [10] it was 84.7 µM (inactive); in assay [11] it was 77.1 µM (inactive); in [12], 77.1 µM (inactive). The GI50 in assay [13] was 91.8 µM (inactive); in assay [14] it was 27.4 µM (inactive); in assay [15], > 100 µM (inactive).
`C/C(CC(=O)Nc1ccccc1)=N\NC(N)=S`: the GI50 in assay [2], in assay [3], in [4], in [5], in [16] and in assay [17] was > 100 µM (inactive) throughout. Moreover, the GI50 in assay [7], in [9], in [10], in assay [11], in assay [12] and in [13] was > 100 µM (inactive) throughout. Also, in [15], the GI50 was > 100 µM (inactive).
Consider `Cc1cc(O)nc(NN2C(Cl)C(=O)C2c2cccc(Cl)c2)n1` (configuration not stated), for which the GI50 in assay [2] is > 10 µM (inactive); in assay [3], 22.2 µM (inactive); in assay [4], 17.1 µM (inactive); in assay [5], 31.2 µM (inactive); in [16] it was > 10 µM (inactive); in [17] it was 17.4 µM (inactive). In addition, the GI50 was 58.2 µM (inactive) in [9]; 12.7 µM (inactive) in [10]; 8.18 µM (inactive) in [11]; 17.2 µM (inactive) in assay [12]; 20.5 µM (inactive) in assay [14]; 22.2 µM (inactive) in [15].
As to `COc1cc(CCc2ccncc2)cc(OC)c1OC`, the GI50 in [1], in assay [2], in [3], in [4], in assay [16] and in assay [17] was > 100 µM (inactive) in each case. The GI50 in assay [7], in [9], in [10], in [11], in assay [12] and in assay [14] was > 100 µM (inactive) in each case. The GI50 in assay [15] was > 100 µM (inactive).
